Where two headings read alike, the source gives them in different places.
Target: T1, PPME (Homo sapiens, UniProt Q9Y570)
T1 construct: made in house; host or cells: E. coli BL21(DE3)
T1 sequence (Q9Y570 1-386): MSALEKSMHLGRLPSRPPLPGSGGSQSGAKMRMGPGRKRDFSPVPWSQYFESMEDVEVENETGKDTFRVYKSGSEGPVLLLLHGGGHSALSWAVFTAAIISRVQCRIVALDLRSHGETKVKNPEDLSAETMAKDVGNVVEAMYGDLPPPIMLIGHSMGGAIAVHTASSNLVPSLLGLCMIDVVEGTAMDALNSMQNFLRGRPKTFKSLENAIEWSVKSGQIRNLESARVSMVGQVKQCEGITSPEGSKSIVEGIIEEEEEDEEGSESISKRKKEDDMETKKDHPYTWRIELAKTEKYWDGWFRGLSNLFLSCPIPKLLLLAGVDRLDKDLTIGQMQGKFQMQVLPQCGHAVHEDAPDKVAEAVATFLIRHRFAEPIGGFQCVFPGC
Test: PP2A methylesterase (PPME) inhibition, filter paper method
Assay type: biochemical
Description: This example provides a method by which the rate of demethylation of methyl PP2A can be determined. For the composition of ^3H-labeled methyl-PP2A, 100 μl reaction mixtures consisting of purified PP2A AC dimers (prepared as described in Example 3), purified PPMT (prepared as described in Example 1), 50 mM MOPS buffer pH 7.2, 5 mM DTT, 1 mM EDTA, 1 mg/ml BSA and 10 μl ^3H-SAM were incubated at 37° C. for 30 min and loaded onto a desalting column pre-equilibrated in 50 mM MOPS-Na pH 7.2, 1 mM DTT, 1 mM EDTA, 200 mM NaCl and 5% glycerol. The sample was eluted with the same buffer, 50 μl fractions were collected, and each aliquot analyzed by scintillation counting. Fractions containing ^3H-methyl PP2A were collected and stored at 4° C.
The following assay (see Lee, J. et al., Proc. Nat'l Acad. Sci. U.S.A. 93(12):[…] (1996)) is referred to subsequently as the “filter paper method”. The test compound was incubated with purified PPME (prepared as described in Example 2) and purified ^3H-methyl-labeled PP2A (the preparation of which is described in the preceding paragraph) in Buffer C (50 mM MOPS, 1 mM EDTA, 1 mM DTT buffer at pH 7.2, as in Example 3). After incubation at 37° C. for a fixed time (typically 10 minutes), the reaction mixture was spotted onto a 1 cm^2 piece of Whatman 3 mM filter paper. The filter paper was immediately dipped in 10% ice-cold TCA, and then kept on ice in a plastic tray. After all reactions were run, the filter papers were washed at 4° C. with stirring in a large excess of 10% TCA, similarly washed twice at 4° C. with 100% methanol, and then vacuum dried at 45° C. for 1 hr to remove the ^3H-methanol produced by PP2A demethylation. The dried filter papers then were assayed for radioactivity by submerging them in scintillation fluid and performing scintillation counting. This procedure is easily adapted to a 96-well format to allow high-throughput screening (described below).
As used herein to refer to assay results, the term “inhibition activity” refers to the following relationship: Inhibition activity=1−(amount of methyl-PP2A carboxyl demethylated with inhibitor)/(amount of methyl-PP2A carboxyl […] without inhibitor).

[1] = PPME at 85 nM, IC50 higher than the value tested, read-out: IC50

| SMILES | IC50 [1] | also measured |
| --- | --- | --- |
| Cc1c(C)c2c(c(C)c1O)CCC(C)(CCCC(C)CCCC(C)CCCC(C)C)O2 (racemic) [#12-1, DL-α-tocopherol] |  | IC50 (PPME at 85 nM, read-out: IC50): 35 µM |
| COc1cc(/C=C/C(=O)CC(=O)/C=C/c2ccc(O)c(OC)c2)ccc1O [CCM-L, Curcumin] |  | IC50 (PPME at 85 nM, read-out: IC50): 771 µM |
| O=C(/C=C/c1ccc(O)c(O)c1)O[C@@H]1C[C@](O)(C(=O)O)C[C@@H](O)[C@H]1O [CGA, Chlorogenic acid] | > 1000 µM |  |
| O=C(O)/C=C/c1ccc(O)c(O)c1 [DHCA, 3,4-Dihdroxycinnamic acid] | > 1000 µM |  |
| COc1cc(C=CC(=O)O)ccc1O [HMCA, 4-Hydroxy-3-methoxycinnamic acid] | > 1000 µM |  |
| O=C(O)[C@]1(O)C[C@@H](O)[C@@H](O)[C@H](O)C1 [QA, D(−)-Quinic acid] | > 10000 µM |  |
| Cn1c(=O)c2c(ncn2C)n(C)c1=O [caffeine] |  | IC50 (read-out: concentration required for 50% inhibition of PPME): > 440 µM |

From US7923041B2, “Compositions and methods for enhancing cognitive function” (Signum Biosciences, Inc., priority 2005, dated 2011)
